Assay results as given in patent EP0061711A1, “10B-Carboxyamino boranes, process for their preparation and their use as medicaments in the neutron-capture therapy” (priority 1981, dated 1982).

Experiments:
[1] = tested on: Sarkom 180; assay: sarcoma 180 in NMRI mice: tumour size and survival, alone or with gamma rays or thermal neutrons; type: in vivo, NMRI-Mäuse; conditions: for überlebende Tiere: 40 Tage after start of treatment
Source text: Die geringe Toxizität der erfindungsgemäß verwendeten Substanz ermöglicht eine so hohe Dosierung, daß sowohl eine begrenzte Eigenwirkung zum Tragen kommt als auch insbesondere eine ausreichende Erhöhung der ^10Bor-Konzentration in den erkrankten Zellen erreicht wird. So wurde festgestellt, daß die Toxizität bei der Maus i.p. eine DL50 um 2000 m^g/k^g ergibt. Pharmakologisch wurde festgestellt, daß N-Trimethyl-^10B-carboxyaminoboran den Einbau von 125 Jod -^desoxyuridin bei der gesunden Maus senkt. Weiterhin senkt es den Einbau von ^125Jod -desoxyuridin in das Sarkom 180 der Maus.
Besonders eindrucksvoll ist die Veränderung der Überlebenszeiten der Sarkom 180 tragenden NMRI-Mäuse. Während 40 Tage nach Beginn der Behandlung von den unbehandelten und den nur mit Neutronen behandelten Tieren ca. 90% am Tumor gestorben sind, überleben zu diesem Zeitpunkt ca. 40% der nur mit N-Trimethyl-^10B-carboxy-aminoboran und ca. 75 % der mit dieser Substanz und Neutronen behandelten Tiere.
Ein Vergleich mit Natriumpentaborat und Neutronen zeigt, daß nur 20 bis 30 % der Sarkom-Tiere überleben.
(§1) Diese pharmakologischen Befunde wurden zunächst noch mit einem N-Trimethyl- B-carboxy-aminoboran erhalten, welches nur 20 % ^10Bor enthielt. Durch Steigerung des ^10Bor-Gehalts auf 80 bis 90% erhöht sich die Antitumorwirkung durch Neutroneneinfang um das. 4 bis 5-fache: • C-57 BL/6j Mäuse mit Adenocarcinom EO 771 werden in drei Gruppen aufgeteilt: • Gruppe 1 dient als Kontrolle Gruppe 2 wird 6 Minuten mit thermischen Neutronen bestrahlt Gruppe 3 erhält 10 mg N-Trimethyl-^10B-carboxyaminoboran intraperitonal (i.p.) und wird nach 6 Stunden - dem Zeitpunkt der optimalen Anreicherung im Tumorgewebe - für 6 Minuten mit thermischen Neutronen bestrahlt.

[2] = acute toxicity (DL50) in the mouse, i.p.; conditions: in vivo, ip, Maus
[3] = therapeutic results in combination with neutrons (model not stated); conditions: in Verbindung mit Neutronen, compared with N-Trimethyl-10B-carboxyaminoboran
[4] = tested on: Adenocarcinom EO 771; assay: adenocarcinoma EO 771 in C-57 BL/6j mice, neutron capture therapy; type: in vivo, C-57 BL/6j Mäuse; conditions: 10 mg i.p., after 6 Stunden 6 Minuten thermische Neutronen
Protocol: as §1

[5] = tested on: gesunden Maus; assay: incorporation of 125I-deoxyuridine in the healthy mouse; type: in vivo; conditions: gesunde Maus
[6] = tested on: Sarkom 180 der Maus; assay: incorporation of 125I-deoxyuridine into sarcoma 180 of the mouse; type: in vivo; conditions: in Sarkom 180 der Maus
[7] = boron accumulation in tumour tissue versus blood; type: in vivo
[8] = water solubility; type: physicochemical; conditions: for intravenous application
[9] = toxicity compared with the compound of the invention (species not stated)

In the case of `C[N+](C)(C)[BH2-]C(=O)O` [N-Trimethyl- B-carboxy-aminoboran, reference compound], the “lokale oder systemische Schäden” value ([1]; surviving animals) was “An keinem der überlebenden Tiere wurden lokale oder systemische Schäden beobachtet”.
In the case of `[NH3+][10BH2-]C(=O)O` [Ammoniak- ^10B-carboxyboran, Ammoniak- ^10 B-carboxyboran], the LD50 [2] was ~2500 mg/kg and the “therapeutische Ergebnisse” value [3] was “Noch bessere therapeutische Ergebnisse”.
For `C[N+](C)(C)[10BH2-]C(=O)O` [N-Trimethyl-^10B-carboxyaminoboran], the Tumorgröße [4] was “nimmt der Tumor in Gruppe 3 nach der kombinierten Behandlung an Größe ab”, the “time until tumour is reduced to a minimum” value [4] was ~7 Tagen and the “Einbau von 125Jod -desoxyuridin” value [5] was “senkt”. The LD50 [2] was ~2000 mg/kg, the “Einbau von 125Jod -desoxyuridin” value [6] was “senkt” and the Kp ([7]; tumour to blood, 6 bis 12 Stunden after intravenous injection, read-out: Bor-Konzentration im Tumor relative to Blut) was 2 to 3. The Tmax ([7]; tumour, ip, after i.p. application, read-out: Zeitpunkt der optimalen Anreicherung im Tumorgewebe) was 6 h, the “überlebende Tiere” value ([1]; substance alone) was “ca. 40%” and the “überlebende Tiere” value ([1]; substance and Neutronen) was “ca. 75%”. For the same compound, the Tumorgröße ([1]; Sarkom 180 der Maus, substance alone) was “Verkleinerung des Tumors”, the Tumorwachstum ([1]; combination with γ-Strahlen) was “positiv beeinflußt” and the Tumorvolumen ([1]; simultaneous treatment with thermischen Neutronen) was “wesentlich stärker verkleinert als durch die Einzelkomponenten”. The Wasserlöslichkeit [8] was “ausreichend wasserlöslich”.
With Natriummonomercaptoundecahydrodecaborat the “toxicity relative to the compound of the invention” value [9] was ~5 mal.
